Results published in patent US20060051868A1, “Methods for increasing conifer somatic embryo initiation, capture, and multiplication” (priority 2001, published 2006).

Test system: slash pine megagametophyte
Assay: Initiation frequency of embryogenic cultures from slash pine megagametophytes
Type: cell-based
Settings: 1.0 ppm paclobutrazol in media #1369B (Media 1374); 8 weeks, dark; control 19.3
Description: A further representative example in conifer to show the effects of gibberellin inhibitors in a buffered media is slash pine. Three cone collections with embryos at stages 2-4 were chosen. Removed seeds were soaked in running water for […]. and then agitated in 10% liquinox containing 1.1 ml/l Tween 20 for an additional 10 min. Seeds were sterilized in a laminar flood by agitating in 20% H2O2 for 10 min. Seeds were rinsed in sterilized water for 5 cycles of 5 to 10 min. each. The sterile seeds were placed into a sterile petri dish and dissected. The dissection was performed by splitting the seed coat, removing the integuments and nucellus, and placing the megagametophyte on the test medium. Test media #1374 contains the components of media #1369B and 1.0 ppm paclobutrazol. 2 ml of the appropriate media was poured into multi-well plates sufficient for 10 replications for each genotype. The plates were then incubated in the dark for 8 weeks at 24-26° C.

CC(C)(C)[C@@H](O)[C@@H](Cc1ccc(Cl)cc1)n1cncn1 (racemic) [paclobutrazol]
Initiation Frequency (%): 28.5%
